Assay results reported in ChEMBL document CHEMBL1140178, “Design, synthesis, and biological evaluation of novel constrained meta-substituted phenyl propanoic acids as peroxisome proliferator-activated receptor alpha and gamma dual agonists” (J Med Chem, 2008).
Activity calls are given as the source filed them. No cut-off for these calls is given here.

Experiments:
[1] = target: T1, Peroxisome proliferator-activated receptor gamma (Homo sapiens, UniProt P37231)
T1 sequence (P37231 whole entry): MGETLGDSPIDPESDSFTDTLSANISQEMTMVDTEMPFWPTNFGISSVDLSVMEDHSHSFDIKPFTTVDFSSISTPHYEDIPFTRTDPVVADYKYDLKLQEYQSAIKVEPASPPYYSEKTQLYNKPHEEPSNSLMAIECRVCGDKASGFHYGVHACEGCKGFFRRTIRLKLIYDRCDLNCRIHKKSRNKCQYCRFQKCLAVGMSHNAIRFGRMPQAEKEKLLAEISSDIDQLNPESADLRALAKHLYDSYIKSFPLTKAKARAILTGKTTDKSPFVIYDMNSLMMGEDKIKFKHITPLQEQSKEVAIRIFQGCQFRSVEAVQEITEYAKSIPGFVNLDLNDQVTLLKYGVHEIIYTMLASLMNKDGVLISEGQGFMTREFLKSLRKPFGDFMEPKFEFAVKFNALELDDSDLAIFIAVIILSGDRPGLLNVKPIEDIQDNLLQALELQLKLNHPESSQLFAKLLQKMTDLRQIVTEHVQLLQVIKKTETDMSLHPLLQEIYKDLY
Description: Agonist activity at human PPARgamma ligand binding domain expressed in african green monkey CV1 cells co-transfected with fused Gal4-DBD by transactivation assay

[2] = target: T2, Peroxisome proliferator-activated receptor alpha (Homo sapiens, UniProt Q07869); assay: (§1) Agonist activity at human PPARalpha ligand binding domain expressed in african green monkey CV1 cells co-transfected with fused Gal4-DBD by transactivation assay; assay type: cell-based, CV-1
T2 sequence (Q07869 whole entry): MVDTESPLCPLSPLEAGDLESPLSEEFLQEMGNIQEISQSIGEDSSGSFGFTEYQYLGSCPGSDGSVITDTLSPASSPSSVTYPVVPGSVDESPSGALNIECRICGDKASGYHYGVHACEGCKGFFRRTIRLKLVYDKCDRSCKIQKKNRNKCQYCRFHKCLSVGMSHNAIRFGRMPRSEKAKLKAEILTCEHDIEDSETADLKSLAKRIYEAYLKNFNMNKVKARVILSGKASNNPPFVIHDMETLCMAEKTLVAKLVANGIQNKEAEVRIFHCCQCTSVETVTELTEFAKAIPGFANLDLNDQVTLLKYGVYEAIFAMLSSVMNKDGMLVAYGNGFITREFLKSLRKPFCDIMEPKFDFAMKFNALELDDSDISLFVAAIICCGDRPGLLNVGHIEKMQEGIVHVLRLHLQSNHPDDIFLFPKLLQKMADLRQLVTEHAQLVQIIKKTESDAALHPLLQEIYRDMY

[3] = target: T3, Peroxisome proliferator-activated receptor alpha (Homo sapiens) (UniProt Q07869); assay: Agonist activity at human PPARalpha ligand binding domain expressed in african green monkey CV1 cells co-transfected with fused Gal4-DBD by transactivation assay relative to gemfibrozil; assay type: cell-based; settings: CV-1
T3 sequence (whole entry): T2 sequence (Q07869 whole entry)

Mus musculus [4] = assay: Antihyperglycemic effect in db/db mouse assessed as inhibition of blood glucose at 3 mg/kg, po after 4 days; assay type: functional; settings: 96 h
Mus musculus [5] = assay: Toxicity in db/db mouse assessed as weight gain at 3 mg/kg, po after 4 days; assay type: organism-based; parameters: dose 3 mg/kg, route oral; settings: in vivo, 96 h
Mus musculus [6] = assay: Antihyperglycemic effect in db/db mouse assessed as inhibition of blood glucose at 3 mg/kg, po after 7 days; assay type: functional; settings: 168 h
Mus musculus [7] = assay: Toxicity in db/db mouse assessed as weight gain at 3 mg/kg, po after 11 days; assay type: organism-based; parameters: dose 3 mg/kg, route oral; settings: in vivo, 264 h
Mus musculus [8] = assay: Toxicity in db/db mouse assessed as weight gain at 3 mg/kg, po after 7 days; assay type: organism-based; parameters: dose 3 mg/kg, route oral; settings: in vivo, 168 h
Mus musculus [9] = assay: Antihyperglycemic effect in db/db mouse assessed as inhibition of blood glucose at 3 mg/kg, po after 11 days; assay type: functional; settings: 264 h
[10] = target: T3, Peroxisome proliferator-activated receptor alpha (Homo sapiens); assay: as §1; assay type: cell-based; settings: CV-1
CV-1 = assay: Ratio of EC50 for human PPARalpha ligand binding domain expressed in african green monkey CV1 cells to EC50 for human PPARgamma ligand binding domain expressed in african green monkey CV1 cells; assay type: cell-based
Mus musculus [11] = assay: Toxicity in db/db mouse assessed as weight gain at 0.3 mg/kg, po after 7 days; assay type: organism-based; parameters: dose 0.3 mg/kg, route oral; settings: in vivo, 168 h
Mus musculus [12] = assay: Antihyperglycemic effect in db/db mouse assessed as inhibition of blood glucose at 0.3 mg/kg, po after 11 days; assay type: functional; settings: 264 h
Mus musculus [13] = assay: Toxicity in db/db mouse assessed as weight gain at 0.3 mg/kg, po after 4 days; assay type: organism-based; parameters: dose 0.3 mg/kg, route oral; settings: in vivo, 96 h
Mus musculus [14] = assay: Antihyperglycemic effect in db/db mouse assessed as inhibition of blood glucose at 0.3 mg/kg, po after 5 days; assay type: functional; settings: 120 h
Mus musculus [15] = assay: Toxicity in db/db mouse assessed as weight gain at 0.3 mg/kg, po after 11 days; assay type: organism-based; parameters: dose 0.3 mg/kg, route oral; settings: in vivo, 264 h
Mus musculus [16] = assay: Antihyperglycemic effect in db/db mouse assessed as inhibition of blood glucose at 3 mg/kg, po after 5 days; assay type: functional; settings: 120 h
Mus musculus [17] = assay: Antihyperglycemic effect in db/db mouse assessed as inhibition of blood glucose at 0.3 mg/kg, po after 7 days; assay type: functional; settings: 168 h
Mus musculus [18] = assay: Antihyperglycemic effect in db/db mouse assessed as inhibition of blood glucose at 0.3 mg/kg, po after 4 days; assay type: functional; settings: 96 h
Mus musculus [19] = assay: Antihyperglycemic effect in db/db mouse assessed as inhibition of blood glucose at 20 mg/kg, po after 5 days; assay type: functional; settings: 120 h

SMILES	EC50 [1]	EC50 [2]	Emax [3]	further results
CCO[C@@H](Cc1cccc(-c2cc(-c3ccccc3)on2)c1)C(=O)O	3.29 µM	5.6 µM	162%	–
COc1ccc(OC(=O)N(CC(=O)O)Cc2ccc(OCCc3nc(-c4ccccc4)oc3C)cc2)cc1 [MURAGLITAZAR]	–	–	–	inhibition in vivo at 3 mg/kg (Mus musculus [4]): 53%; Activity (Mus musculus [5]): 2 g; inhibition in vivo at 3 mg/kg (Mus musculus [6]): 67%; Activity (Mus musculus [7]): 6.3 g; Activity (Mus musculus [8]): 3.6 g; inhibition in vivo at 3 mg/kg (Mus musculus [9]): 68%
CCO[C@H](Cc1cccc(C2=NOC(Cc3ccccc3)C2)c1)C(=O)O (stereo partly drawn)	41.4 µM	–	6%	Activity [10]: inactive
CCO[C@@H](Cc1cccc(C2=NOC(Cc3ccccc3)C2)c1)C(=O)O (stereo partly drawn)	6.93 µM	21.6 µM	104%	Ratio EC50 (CV-1): 3.1
CCO[C@@H](Cc1cccc(C2=NOC(c3ccc(C(C)(C)C)cc3)C2)c1)C(=O)O (stereo partly drawn)	2.73 µM	3.95 µM	138%	–
CCO[C@@H](Cc1cccc(C2=NOC(c3ccc(O)cc3)C2)c1)C(=O)O (stereo partly drawn)	38.6 µM	–	0%	–
CCO[C@@H](Cc1cccc(C2=NOC(c3ccc(Cl)cc3)C2)c1)C(=O)O (stereo partly drawn)	0.816 µM	6.78 µM	125%	inhibition in vivo at 3 mg/kg (Mus musculus [16]): 41.7%
CCO[C@H](Cc1cccc(-c2cc(-c3ccccc3)on2)c1)C(=O)O	37.4 µM	30.4 µM	48%	–
CCO[C@H](Cc1cccc(C2=NOC(c3ccccc3)C2)c1)C(=O)O (stereo partly drawn)	25.4 µM	–	–	inhibition in vivo at 20 mg/kg (Mus musculus [19]): 3%; Activity [10]: inactive
Cc1ccc(C)c(OCCCC(C)(C)C(=O)O)c1	–	–	100%	–
CCO[C@@H](Cc1cccc(C2=NOC(c3ccc(I)cc3)C2)c1)C(=O)O (stereo partly drawn)	0.606 µM	2.76 µM	162%	–
CCO[C@@H](Cc1cccc(C2=NOC(c3ccccc3)C2)c1)C(=O)O (stereo partly drawn)	0.22 µM	3.99 µM	78%	Ratio EC50 (CV-1): 18; inhibition in vivo at 20 mg/kg (Mus musculus [19]): 27%
CCO[C@@H](Cc1cccc(C2=NOC(c3ccc(F)cc3)C2)c1)C(=O)O (stereo partly drawn)	1.16 µM	24.4 µM	119%	–
CCO[C@@H](Cc1cccc(C2=NOC(c3ccc(Br)cc3)C2)c1)C(=O)O (stereo partly drawn)	0.74 µM	4.39 µM	144%	–
CCO[C@@H](Cc1cccc(/C(C)=N/OCc2cccc(Cl)c2)c1)C(=O)O	0.01 µM	2.27 µM	165%	Ratio EC50 (CV-1): 227
CCO[C@@H](Cc1cccc(C2=NOC(c3ccc(OS(C)(=O)=O)cc3)C2)c1)C(=O)O (stereo partly drawn)	28.1 µM	37.4 µM	107%	–
CN(CCOc1ccc(CC2SC(=O)NC2=O)cc1)c1ccccn1 (stereo not drawn)	–	–	56%	–
CCO[C@@H](Cc1ccc(OCCc2ccc(OS(C)(=O)=O)cc2)cc1)C(=O)O	–	–	94%	–
CCO[C@@H](Cc1cccc(C2=NOC(c3ccc(OC)cc3)C2)c1)C(=O)O (stereo partly drawn)	3.19 µM	11.3 µM	156%	–
CCO[C@H](Cc1cccc(C2=NOC(CCc3ccccc3)C2)c1)C(=O)O (stereo partly drawn)	25.1 µM	44.5 µM	217%	Ratio EC50 (CV-1): 1.8
CCO[C@@H](Cc1cccc(C2=NOC(CCc3ccccc3)C2)c1)C(=O)O (stereo partly drawn)	1.85 µM	3.08 µM	262%	Ratio EC50 (CV-1): 1.7

More lines, main results first:

EC50 [1]	EC50 [2]	Emax [3]	SMILES	further results
0.026 µM	3.26 µM	143%	CCO[C@@H](Cc1cccc(/C(C)=N/OCc2ccccc2Cl)c1)C(=O)O	Ratio EC50 (CV-1): 126
1.61 µM	13.1 µM	165%	CCO[C@@H](Cc1cccc(/C(C)=N/OCc2ccc(OS(C)(=O)=O)cc2)c1)C(=O)O	–
0.046 µM	2.95 µM	185%	CCO[C@@H](Cc1cccc(/C(C)=N/OCc2ccc(C(F)(F)F)cc2)c1)C(=O)O	–
0.04 µM	0.674 µM	139%	CCO[C@@H](Cc1cccc(/C(C)=N/OCc2ccc(I)cc2)c1)C(=O)O	–
0.028 µM	7.22 µM	386%	CCO[C@@H](Cc1cccc(/C(C)=N/OCc2ccc(Cl)cc2)c1)C(=O)O	Activity (Mus musculus [11]): 3.7 g; inhibition in vivo at 3 mg/kg (Mus musculus [4]): 61%; inhibition in vivo at 0.3 mg/kg (Mus musculus [12]): 71%; Activity (Mus musculus [13]): 1.9 g; inhibition in vivo at 0.3 mg/kg (Mus musculus [14]): 19.3%; Ratio EC50 (CV-1): 260; Activity (Mus musculus [15]): 6 g; inhibition in vivo at 3 mg/kg (Mus musculus [16]): 60.1%; Activity (Mus musculus [5]): 2.5 g; inhibition in vivo at 3 mg/kg (Mus musculus [6]): 73%; inhibition in vivo at 0.3 mg/kg (Mus musculus [17]): 60%; Activity (Mus musculus [7]): 5.3 g; inhibition in vivo at 0.3 mg/kg (Mus musculus [18]): 63%; Activity (Mus musculus [8]): 3.7 g; inhibition in vivo at 3 mg/kg (Mus musculus [9]): 76%
0.175 µM	4.06 µM	179%	CCO[C@@H](Cc1cccc(/C(C)=N/OCc2ccc(OC)cc2)c1)C(=O)O	–
0.121 µM	2.91 µM	71%	CCO[C@@H](Cc1cccc(/C(C)=N/OCc2ccccc2)c1)C(=O)O	–
1.89 µM	–	8%	CCO[C@H](Cc1cccc(/C(C)=N/OCc2ccccc2)c1)C(=O)O	inhibition in vivo at 20 mg/kg (Mus musculus [19]): 22.3%; Activity [10]: inactive
0.279 µM	12.1 µM	137%	CCO[C@@H](Cc1cccc(/C(C)=N/OCc2ccc(C(C)(C)C)cc2)c1)C(=O)O	–
2.94 µM	58.8 µM	58%	CCO[C@@H](Cc1cccc(/C(C)=N/OCc2ccc(O)cc2)c1)C(=O)O	–
0.139 µM	5.9 µM	299%	CCO[C@@H](Cc1cccc(/C(C)=N/OCc2ccc(F)cc2)c1)C(=O)O	Activity (Mus musculus [11]): 3.6 g; inhibition in vivo at 3 mg/kg (Mus musculus [4]): 64%; inhibition in vivo at 0.3 mg/kg (Mus musculus [12]): 68%; Activity (Mus musculus [13]): 1.9 g; inhibition in vivo at 0.3 mg/kg (Mus musculus [14]): 40.7%; Activity (Mus musculus [15]): 5.6 g; inhibition in vivo at 3 mg/kg (Mus musculus [16]): 61%; Activity (Mus musculus [5]): 2.1 g; inhibition in vivo at 3 mg/kg (Mus musculus [6]): 73%; inhibition in vivo at 0.3 mg/kg (Mus musculus [17]): 58%; Activity (Mus musculus [7]): 5.6 g; inhibition in vivo at 0.3 mg/kg (Mus musculus [18]): 39%; Activity (Mus musculus [8]): 3.6 g; inhibition in vivo at 3 mg/kg (Mus musculus [9]): 71%
0.036 µM	2.7 µM	150%	CCO[C@@H](Cc1cccc(/C(C)=N/OCc2ccc(Br)cc2)c1)C(=O)O	–
